Results reported in PMC6911004, “Fragment-based screening identifies molecules targeting the substrate-binding ankyrin repeat domains of tankyrase” (Scientific Reports, 2019).
Where a SMILES comes first, the peptide text is derived from it. [ ]: non-standard residue; d: D form.

Columns and labels:
Type in all cases: binding
[1] = target: T1, TNKS2 ARC4 (Homo sapiens, UniProt Q9H2K2); assay: Fluorescence polarisation (FP) competition assay with Cy5-labelled TBM peptide probe; conditions: for FP competition, result in words: peptide titrated up to 1 mM; for IC50: 5 nM Cy5-RSPPDGQS probe, 5 µM TNKS2 ARC4
T1 construct: The cell was filled with TNKS2 ARC4 (488–649); His6-GST; made in house; host or cells: E. coli
T1 sequence (Q9H2K2 488-649): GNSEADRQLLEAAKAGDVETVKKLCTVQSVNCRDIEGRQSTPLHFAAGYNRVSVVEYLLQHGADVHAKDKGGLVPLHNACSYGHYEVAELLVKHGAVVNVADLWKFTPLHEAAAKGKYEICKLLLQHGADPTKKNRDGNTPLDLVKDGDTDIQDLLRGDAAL
Description: Given the anticipated impairment of cell permeability by the N-terminal TBM arginine, we investigated whether the guanidine group could be substituted. To prioritise synthesis efforts, we followed an in-silico docking approach, exploring the importance of the positive charge and hydrogen bonding interactions, linker lengths/flexibility and side chain geometry (see Supplementary Materials and Methods for details). From commercially available side chain alternatives, we identified five potential candidates for R replacements: 1H-imidazole-5-pentanoic acid, 1H-imidazole-1-pentanoic acid, 7-aminoheptanoic acid, D-arginine and L-citrulline (Supplementary Fig. 1). We next synthesised 3BP2 TBM octapeptides, incorporating the five arginine substituents at position 1, followed by fluorescence polarisation (FP) assays to assess competition of the peptides with a Cy5-labelled TBM peptide probe (Supplementary Fig. 1). We used a 16-mer TBM peptide (LPHLQRSPPDGQSFRSW, W introduced to measure A280) derived from the model substrate 3BP2, a signalling adapter protein[4], as a positive control for a competitor, and a corresponding non-binding TBM peptide bearing a glycine-to-arginine substitution at position 6[4] as a negative control. […]
Fluorescence polarisation assay
Unlabelled arginine substituent peptides were titrated up to 1 mM in the presence of 5 nM of a labelled peptide probe (Cy5-RSPPDGQS, JPT Peptide Technologies) and 5 µM TNKS2 ARC4. 3BP2 16-mer peptide was used as a positive control, and the same peptide with the glycine at position 6 mutated to arginine (G6R) was used as a negative control. Plus F ProxiPlates (PerkinElmer) were used with a 2103 Envision Multilabel plate reader (PerkinElmer), fitted with 620 nm (excitation) and 688 nm (emission) filters. Filter bandwidths were 10 nm. A Nanodrop 2000 was used for measuring protein and probe concentrations by UV absorption. TNKS2 ARC4 protein was thawed from -80 ° C, and centrifuged at 13,000 […]
Two independent experiments were performed in technical duplicate. A 2´ stock solution containing TNKS2 ARC4 protein (10 µM) and fluorescently tagged probe (10 nM) in assay buffer (25 mM HEPES-NaOH pH 7.5, 100 mM NaCl, 1 mM TCEP, 0.01% CHAPS) was prepared. A 2-fold dilution series of untagged peptide in assay buffer was made (0 – 2 mM).
Protein and peptide stock solutions were mixed 1:1. Blank samples contained assay buffer only. The plate was sealed, centrifuged for 1 min at 1000 ´ g, and then incubated in the dark for 30 min before reading. Readings were taken with 50 flashes per well, and measured in millipolarisation (mP) units. Data were exported to Microsoft Excel, and analysed in GraphPad Prism 6.0. The means of technical duplicate values were calculated for both experiments, and FP values were plotted against unlabelled peptide concentration. Curves were normalised using the overall mean maximum and minimum FP values of the control 3BP2 TBM peptide. Curves were fitted using a non-linear regression, log(inhibitor) vs. response – variable slope (four parameters) model.
Multiple sequence alignments and amino acid identity mapping
Sequences of tankyrase ARCs were aligned using ClustalX (version 2.0) 4. […]
Supplementary Figure 1. Binding of TBM peptides containing arginine substituents to TNKS2 ARC4, measured in a fluorescence polarisation (FP) competition assay. Data points are means of technical duplicates from two independent experiments. […]

[2] = target: T2, TNKS2 ARC5 (Homo sapiens, UniProt Q9H2K2); assay: T2 relaxation-edited ligand-observed NMR assay; conditions: DSF hit validation; for binding to TNKS2 ARC5 by ligand-observed NMR, in words: relaxation-edited and waterLOGSY; for competition with the 3BP2 TBM peptide by relaxation-edited NMR: ARC used for competition not given
T2 construct: followed by TNKS2 ARC5 (1 μL, 100 μM stock); His6-GST; made in house; host or cells: E. coli
T2 sequence (Q9H2K2 641-800): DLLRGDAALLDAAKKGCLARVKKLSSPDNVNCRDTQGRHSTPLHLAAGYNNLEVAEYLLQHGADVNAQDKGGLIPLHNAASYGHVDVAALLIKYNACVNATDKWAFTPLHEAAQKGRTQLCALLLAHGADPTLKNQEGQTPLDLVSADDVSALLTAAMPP
Description: (§1) 39 hits from the DSF screen were suitable for follow-up by ligand-observed NMR methods. We re-purchased fragments and performed T2 relaxation-edited (CPMG-edited) and waterLOGSY experiments for each fragment with TNKS2 ARC5. We explored saturation transfer difference (STD) NMR, also using TNKS2 ARC5, but the assay was not sensitive enough to produce a reliable binding signal, likely due to the relatively small size of a single ARC protein (data not shown). High ligand concentrations were required to achieve sufficient signal, which in turn could lead to false-positive hits due to non-specific binding.
Using the relaxation-edited assay, we tested each fragment in three independent measurements (Fig. 2C), unless we obtained two negative results (non-binding) in the first two experiments. […] As a negative NOE for the compound-only sample could indicate aggregation, we flagged these compounds as potentially problematic. We identified 14 fragments that bound to TNKS2 ARC5 by both relaxation-edited and waterLOGSY methods (0.78% hit rate). We next tested whether binding of these fragments occurred competitively with the 3BP2 TBM peptide, and also if they bound to TNKS2 ARC4, as competition with peptide binders at various different ARCs will be a prerequisite for an efficient substrate binding antagonist. Three fragments (1, 2, 3) bound to both TNKS2 ARC4 and ARC5 and were competitive with the TBM peptide (0.16% hit rate) (Fig. 2E). Three further fragments also bound to both ARCs, but were not TBM competitive by NMR.
(§2) Fragments were dispensed in duplicate into a 384-well plate (250 nL, 100 mM stock in DMSO). Wells were backfilled with DMSO (2.25 μL). Tankyrase ARC protein (47.5 μL in 25 mM HEPES, pH 7.5, 100 mM NaCl, 2 mM TCEP, 10% D2O; 20 μM final protein concentration in the assay) was added to the ‘protein’ samples; buffer only (47.5 μL) was added to the ‘compound-only’ samples. Solutions were transferred to 1.7 mm NMR tubes using a Gilson liquid handling system. ^1H NMR spectra were recorded, with the DMSO and water signals dampened. A relaxation spin filter was applied at 400 ms[65]. Data were processed using Bruker Topspin 3.14. Lines were broadened with LB = 3.0, and the baseline was corrected between 6.0–10.0 ppm. The average integral for all peaks between 6.0–10.0 ppm was calculated, and the difference between compound-only and compound-plus-protein samples was compared. A reduction in signal integrals of ≥15% was classified as a hit. For competitive experiments, 3BP2 16-mer peptide (100 μM) was added, and the spectra were recorded and processed as above. The variability in signal reduction in the relaxation-edited experiment was previously determined as approximately ± 10% (Liu et al., unpublished observations).

[3] = target: T2, TNKS2 ARC5; assay: WaterLOGSY NMR assay
Description: as §1
Using the relaxation-edited assay, we tested each fragment in three independent measurements (Fig. 2C), unless we obtained two negative results (non-binding) in the first two experiments. […] As a negative NOE for the compound-only sample could indicate aggregation, we flagged these compounds as potentially problematic. We identified 14 fragments that bound to TNKS2 ARC5 by both relaxation-edited and waterLOGSY methods (0.78% hit rate). […]
Fragments were dispensed in duplicate into a 384-well plate (250 nL, 100 mM stock in DMSO). […] Solutions were transferred to 1.7 mm NMR tubes using a Gilson liquid handling system. ^1H NMR spectra were recorded, with the DMSO signal dampened. […]

[4] = target: T1, TNKS2 ARC4; assay: T2 relaxation-edited ligand-observed NMR assay; conditions: for binding to TNKS2 ARC4 by ligand-observed NMR, in words: DSF hit validation
Description: We next sought close structural analogues of hit fragments 3 and 5 to gain early insights into structure-activity relationships (SAR) and binding modes of hit fragments. We initially tested the analogues using both relaxation-edited and waterLOGSY NMR assays against TNKS2 ARC4 (Table 1), followed by protein-observed NMR if binding was detected in both ligand-observed NMR experiments.
as §2

With 7-aminoheptanoic acid the “FP competition, result in words” value [1] was “poor competition”.
With `N=C(N)NCCC[C@H](N)C(=O)N[C@@H](CO)C(=O)N1CCC[C@H]1C(=O)N1CCC[C@H]1C(=O)N[C@@H](CC(=O)O)C(=O)NCC(=O)N[C@@H](CCC(N)=O)C(=O)N[C@@H](CO)C(=O)O` [8-mer RSPPDGQS TBM peptide, RSPPDGQS, reference compound] (H-RSPPDGQS-OH) the IC50 [1] was 34 µM.
Compound `N=C(N)NCCC[C@@H](N)C(=O)N[C@@H](CO)C(=O)N1CCC[C@H]1C(=O)N1CCC[C@H]1C(=O)N[C@@H](CC(=O)O)C(=O)NCC(=O)N[C@@H](CCC(N)=O)C(=O)N[C@@H](CO)C(=O)O` [D-arginine] (H-[dR]SPPDGQS-OH) has an IC50 [1] of 175 µM.
For `O=S(=O)(Nc1cccc(O)c1)c1ccc(Cl)cc1` [compound 1], the “binding to TNKS2 ARC5 by ligand-observed NMR, in words” value [2] was “bound”, the “competition with the 3BP2 TBM peptide by relaxation-edited NMR” value [2] was “competitive” and the waterLOGSY [3] was “negative NOE signal”. For the same compound, the “binding to TNKS2 ARC4 by ligand-observed NMR, in words” value [4] was “bound”.
With `COc1ccc2c(OC(C)=O)coc2c1` [compound 2] the “binding to TNKS2 ARC5 by ligand-observed NMR, in words” value [2] was “bound”, the “competition with the 3BP2 TBM peptide by relaxation-edited NMR” value [2] was “competitive” and the “binding to TNKS2 ARC4 by ligand-observed NMR, in words” value [4] was “bound”.
In the case of `NC(=O)Cc1coc2ccc3ccccc3c12` [compound 4], the “T2 relaxation-edited: competition with 3BP2 TBM peptide” value ([4]; 3BP2 16-mer peptide 100 μM) is reported as “competitive”.
citrulline was tested, and the “FP competition, result in words” value [1] was “poor competition”.
